From patent US20050037382A1, “Methods and compositions for treating and preventing autoimmune disorders” (priority 2003, published 2005)

Tested on: chronic colitis induced by DSS treatment
Assay: Apyrase administration in DSS-induced chronic colitis (weight)
Format: in vivo, mice
Conditions: apyrase 0.4 units/g weight at week five
Text: Adult mice (55-75 day old) sex-matched hemizygous CD39+/−, CD39−/−, and CD39+/+ littermates were given 3-5% (w/v) DSS in drinking water for seven days to induce a pathological state reminiscent of acute ulcerative colitis. Mice were fasted on day 7, and sacrificed the next day. Tissue was collected for Haematoxylin and Eosin staining, immunohistochemistry staining (for CD39, CD39L1, P-selectin, Fibrin, and P2Y1, for example), Western blot analysis, and NTPDase activity. To induce chronic ulcerative colitis, mice were treated with 3% DSS for seven days followed by a one week rest period. DSS treatment was resumed for seven days followed by another rest period of seven days. Treatment was resumed in the fifth week for seven days. At least six age- and sex-matched hemizygous CD39+/−, CD39−/−, and CD39+/+ mice were studied at the end of seven days of DSS treatment (acute colitis) or 5 week DSS treatment (chronic colitis). Mice were housed in standard cages and were allowed to drink and feed ad libitum. Animals were weighed daily. To test the hypothesis that the administration of an NTPDase can delay the damage caused by colitis, CD39+/+ and CD39+/− mice, following the induction of chronic colitis by DSS treatment, were administered with apyrase, an NTPDase (see FIGS. 4A and 4B). Apyrase was administered at 0.4 units/g weight at week five following the initial treatment with DSS.

Substance: apyrase
- weight following apyrase treatment (CD39+/+ mice): significant gain in weight
- weight following apyrase treatment (CD39−/+ (hemizygous) mice, compared with effect in CD39+/+ mice): further enhanced
